Columns and labels:
[1] = biological target: T1, F508del CFTR (Homo sapiens, UniProt P13569, DEL508-508); assay: Equivalent current assay in primary CF airway epithelial cells (Corrector Activity, NAUC normalized to 3 μM VX809); format: cell-based; settings: NAUC as % of positive control (VX-809)
T1 construct: Primary CF airway epithelial cells were obtained from the UNC Cystic Fibrosis Tissue Procurement and Cell Culture Core; host or cells: primary CF airway epithelial cells
Procedure, shortened: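 Differentiated primary CF airway cells treated basolaterally 24 h at 37° C with compound (0.1% DMSO). Equivalent current recorded after 5 μM benzamil, stimulation with 10 μM forskolin plus 1 μM VX-770 or 3 μM FDL176, and block by 20 μM CFTR-172; vehicle-subtracted AUC normalized to 3 μM VX809; EC50 from sigmoid fit, Hill slope 1.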

[2] = biological target: T1, F508del CFTR; assay: CoPo (corrector plus potentiator) equivalent current assay in primary CF airway epithelial cells, test compound added back as potentiator, no VX-770; format: cell-based; set-up: key: +++: NAUC>70% of positive control; ++: NAUC 70-40% of positive control; +: NAUC<40% of positive control; O: no positive response; settings: CoPo as % of positive control (VX-809 + acute VX-770)
Procedure: It was noticed that many of the test compounds had potentiator activity in addition to corrector activity. These compounds have been denoted as CoPos by FDL and others. To measure both the corrector and potentiator activity of a compound the following changes were made to the test conditions. Cells were treated as usual with the test compounds for at least 24 hours before the experiment. 30 minutes prior to the experiment the test compound is added back to the testing solution to act as a potentiator and no VX-770 (the standard CFTR potentiator) was used with the test compound. The negative control was no longer just DMSO (no corrector) but changed to VX-809 (the standard corrector) plus VX-770 treatment for at least 24 hours. 30 minutes prior to the experiment both VX-809 and VX-770 were added back to the testing solution. This treatment led to a smaller response than the positive control of correcting F508del CFTR with VX-809 alone for at least 24 hours and adding VX-770 acutely with the forskolin addition (just as in the corrector assay).
A CoPo reading of zero means that the test compound has the same forskolin stimulated response as VX-809+VX-770 treatment for 24 hours. A CoPo reading of 1.0 means the test compound has the same forskolin response as cell treated with VX-809 and stimulated with forskolin+VX-770. CoPo activity “+++” refers to an observed CoPo>70% of positive control; CoPo activity “++” refers to an observed CoPo 70-40% of positive control; CoPo activity “+” refers to an observed CoPo<40% of positive control and “O” refers to no positive response.

T1 sequence (P13569 with tags, fused parts or gaps DEL508-508): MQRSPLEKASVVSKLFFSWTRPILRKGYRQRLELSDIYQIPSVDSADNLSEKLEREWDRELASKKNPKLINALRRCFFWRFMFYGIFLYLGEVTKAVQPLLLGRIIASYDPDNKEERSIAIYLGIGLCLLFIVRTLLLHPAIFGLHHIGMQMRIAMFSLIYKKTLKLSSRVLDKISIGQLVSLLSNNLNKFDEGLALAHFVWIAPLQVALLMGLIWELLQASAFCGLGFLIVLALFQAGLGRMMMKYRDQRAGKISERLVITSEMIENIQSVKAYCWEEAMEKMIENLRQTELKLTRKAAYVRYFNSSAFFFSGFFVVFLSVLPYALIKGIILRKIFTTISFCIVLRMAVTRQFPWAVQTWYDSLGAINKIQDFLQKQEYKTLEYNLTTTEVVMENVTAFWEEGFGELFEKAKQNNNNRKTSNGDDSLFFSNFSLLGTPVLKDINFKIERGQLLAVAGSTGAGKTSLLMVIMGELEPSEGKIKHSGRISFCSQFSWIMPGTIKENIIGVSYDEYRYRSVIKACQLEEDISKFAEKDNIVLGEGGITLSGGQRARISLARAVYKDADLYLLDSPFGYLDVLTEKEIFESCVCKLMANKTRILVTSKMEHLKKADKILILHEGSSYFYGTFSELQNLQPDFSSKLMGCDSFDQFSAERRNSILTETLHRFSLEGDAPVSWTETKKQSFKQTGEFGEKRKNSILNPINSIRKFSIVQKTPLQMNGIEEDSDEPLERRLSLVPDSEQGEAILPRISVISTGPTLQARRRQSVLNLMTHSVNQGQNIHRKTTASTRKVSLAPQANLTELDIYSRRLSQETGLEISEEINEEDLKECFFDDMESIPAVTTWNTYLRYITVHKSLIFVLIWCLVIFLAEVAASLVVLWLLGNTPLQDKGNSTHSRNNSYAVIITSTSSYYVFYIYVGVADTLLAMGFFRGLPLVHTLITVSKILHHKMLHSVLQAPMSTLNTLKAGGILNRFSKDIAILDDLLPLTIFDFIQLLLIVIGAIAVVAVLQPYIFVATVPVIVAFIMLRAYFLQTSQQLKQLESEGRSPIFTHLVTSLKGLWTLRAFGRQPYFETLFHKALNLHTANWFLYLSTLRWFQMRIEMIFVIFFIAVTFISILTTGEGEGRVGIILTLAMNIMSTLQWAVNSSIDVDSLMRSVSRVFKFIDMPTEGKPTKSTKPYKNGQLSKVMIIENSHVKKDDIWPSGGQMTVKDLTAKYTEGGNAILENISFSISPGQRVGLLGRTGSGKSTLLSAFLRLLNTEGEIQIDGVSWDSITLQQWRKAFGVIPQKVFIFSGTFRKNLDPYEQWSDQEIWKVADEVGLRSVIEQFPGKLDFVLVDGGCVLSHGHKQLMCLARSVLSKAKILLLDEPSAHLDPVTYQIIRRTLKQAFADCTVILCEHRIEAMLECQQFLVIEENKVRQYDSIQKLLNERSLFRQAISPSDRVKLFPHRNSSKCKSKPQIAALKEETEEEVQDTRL

## CCN(C(=O)Cn1nc(-c2cccc(F)c2)c2[nH]cnc2c1=O)c1ccc2c(c1)OC(F)(F)O2 [Example 25]
[1]
  Corr Activity (NAUC): +++ (NAUC>70% of positive control)
[2]
  CoPo Activity: + (CoPo<40% of positive control)

## CCN(C(=O)Cn1nc(-c2cccc(C#N)c2)c2occc2c1=O)c1ccc2c(c1)CCC2 [Example 12]
[1]
  Corr Activity (NAUC): +++ (NAUC>70% of positive control)
[2]
  CoPo Activity: +++ (CoPo>70% of positive control)

## CN(C(=O)Cn1nc(-c2cccc(F)c2)c2c(c1=O)CCO2)c1ccc2c(c1)OC(F)(F)O2 [Example 160]
[1]
  Corr Activity (NAUC): ++ (NAUC 70-40% of positive control)
[2]
  CoPo Activity: + (CoPo<40% of positive control)

## CCN(C(=O)Cn1nc(-c2cccc(C#N)c2)c2[nH]cnc2c1=O)c1ccc2c(c1)OC(F)(F)O2 [Example 24]
[1]
  Corr Activity (NAUC): +++ (NAUC>70% of positive control)
[2]
  CoPo Activity: +++ (CoPo>70% of positive control)

## CN(C(=O)Cn1nc(-c2cccc(F)c2)c2occc2c1=O)c1ccc2c(c1)OC(F)(F)O2 [Example 8]
[1]
  Corr Activity (NAUC): +++ (NAUC>70% of positive control)
[2]
  CoPo Activity: ++ (CoPo 70-40% of positive control)

## CN(C(=O)Cn1nc(-c2cccc(Cl)c2)c2occc2c1=O)c1ccc2c(c1)OC(F)(F)O2 [Example 9]
[1]
  Corr Activity (NAUC): +++ (NAUC>70% of positive control)
[2]
  CoPo Activity: +++ (CoPo>70% of positive control)

## CN(C(=O)Cn1nc(-c2cccc(Cl)c2)c2[nH]cnc2c1=O)c1ccc2c(c1)OC(F)(F)O2 [Example 22]
[1]
  Corr Activity (NAUC): ++ (NAUC 70-40% of positive control)
[2]
  CoPo Activity: O

## CN(C(=O)Cn1nc(-c2cccc(C#N)c2)c2[nH]cnc2c1=O)c1ccc2c(c1)OC(F)(F)O2 [Example 23]
[1]
  Corr Activity (NAUC): + (NAUC<40% of positive control)
[2]
  CoPo Activity: + (CoPo<40% of positive control)

## CN(C(=O)Cn1nc(-c2cccc(F)c2)c2nc[nH]c2c1=O)c1ccc2c(c1)OC(F)(F)O2 [Example 21]
[1]
  Corr Activity (NAUC): + (NAUC<40% of positive control)
[2]
  CoPo Activity: O

## CN(C(=O)Cn1nc(-c2cccc(C#N)c2)c2occc2c1=O)c1ccc2c(c1)OC(F)(F)O2 [Example 11]
[1]
  Corr Activity (NAUC): +++ (NAUC>70% of positive control)
[2]
  CoPo Activity: +++ (CoPo>70% of positive control)

## CCN(C(=O)Cn1nc(-c2cccc(F)c2)c2c(c1=O)CCO2)c1ccc2c(c1)OC(F)(F)O2 [Example 161]
[1]
  Corr Activity (NAUC): +++ (NAUC>70% of positive control)
[2]
  CoPo Activity: ++ (CoPo 70-40% of positive control)

## CCN(C(=O)Cn1nc(-c2cccc(C#N)c2)c2occc2c1=O)c1ccc2c(c1)OC(F)(F)O2 [Example 10]
[1]
  Corr Activity (NAUC): +++ (NAUC>70% of positive control)
[2]
  CoPo Activity: +++ (CoPo>70% of positive control)
